Results taken from US20260234630A1, “Methods for Treating Multiple Myeloma” (Celgene Corporation, priority 2022, published 2026).

What was measured:
H929 cells = test: Gene expression changes by Affymetrix microarray in H929 cells; assay type: cell-based; settings: POM 1 μM, 24 hour
Procedure: (§1) FIG. 1A-1F. Down regulation of UHRF1 transcription by IMiDs correlates with drug sensitivity of multiple myeloma. (1A) Volcano plot of protein expression changes determined by mass spectrometry in H929 cells at 24 hr of treatment with CC-220 (0.1 μM) or DMSO control. X axis, Log2fold change (FC); Y axis, significance,-log 10 [p-value]. […] (1B) Volcano plot of gene expression changes determined by Affymetrix microarray in H929 cells treated with POM (1 μM) or DMSO for 24 hr. X axis, Log2fold change (FC); Y axis, significance,-log 10 [p-value], n=2 technical replicates). […] (1C) Western blot analysis protein expression of UHRF1, Ikaros, Aiolos and ZFP91 in H929 cells treated with 1 μM POM for indicated time. (1D) qRT-PCR analysis of UHRF1 gene expression levels in cells as in (1C). Error bars represent the SEM from duplicate measurements. (1E) Western blot analysis protein expression of UHRF1 and indicated proteins in MM cells treated with DMSO (−) or 1 μM POM (+) for 3 days. GAPDH serves as a loading control. (1F) Thymidine incorporation of various MM cell lines treated with indicated dose of POM for 3 days. Error bars represent the SEM from technical replicates.
Given that UHRF1 has been reported to be oncogenic in other cancer types, including MM (Gu et al., 2020, BMC Biol, 18:33), the functions of UHRF1 in MM and the mechanisms underlying its gene regulation in response to immunomodulator drugs that binds to cereblon was explored.

Ikaros, Aiolos and ZFP91 = test: Western blot of cereblon substrates in MM cells; assay type: cell-based
Procedure: as §1, with “Down regulation of UHRF1 transcription by IMiDs correlates with drug sensitivity of multiple myeloma.” left out
FIG. 2A-2E. […] (2A) Western blot analysis protein expression of UHRF1, Ikaros, Aiolos, ZFP91 and Cereblon expression in control [shLuciferase (shLuc)] and cereblon knockdown (shCRBN) H929 cells treated with DMSO and 1 μM POM for 3 days. GAPDH, loading control. Arrow head, UHRF1. (2B) qRT-PCR analysis of UHRF1 gene expression levels in cells as in (2A). Data was normalized to ACTB. Error bars represent the SEM of technical duplicates. *** P<0.001 (Two-tailed unpaired Student's t-test). (2C) Western blot analysis protein expression of UHRF1, Ikaros and Aiolos in stably transduced H929 cells after Dox induction (0, 10, 50 or 100 ng/ml) for 3 days of non-target shRNA (shNT) or shRNAs targeting Ikaros (shIKZF1) or Aiolos (shIKZF3). (2D) qRT-PCR analysis of UHRF1 gene expression levels in cells as in (2C). Shown are cells induced with Dox (50 ng/ml) for 3 days. Data was normalized to GAPDH. Error bars represent the SEM of technical duplicates. *P<0.05, ** P<0.01, *** P<0.001, **** P<0.0001 (Two-tailed unpaired Student's t-test). […] ChIP with control rabbit IgG (IgG) serves as a negative control. Error bars represent the SEM of technical triplicates. * P<0.05, ** P<0.01, **** P<0.0001 (Two-tailed unpaired Student's t-test).
Cells were lysed with cell lysis buffer (50 mM TrisHCl pH7.4, 250 mM NaCl, 0.5% Triton X100, 10% glycerol) supplemented with protease inhibitor cocktail. Cell lysates were subjected to sonication to breakdown nuclei and reduce viscosity caused by released genomic DNA. The protein concentration was measured by a Bradford Protein Assay (Bio-Rad). […] Proteins of interested were detected incubation with primary antibodies listed below at 4° C. overnight. […]

Compound: Nc1cccc2c1C(=O)N(C1CCC(=O)NC1=O)C2=O (stereo not shown) [POM, pomalidomide]
- UHRF1 gene expression (microarray) (H929 cells): one of the most significantly downregulated genes
- expression of interferon response genes IFIT1 and IFIT3 (H929 cells): drastic induction
- gene expression of cell cycle regulators E2F1, MYB and CDC45 (H929 cells): most significantly downregulated genes
- time to degradation of Ikaros, Aiolos and ZFP91 proteins (Ikaros, Aiolos and ZFP91; H929 cells, POM 1 μM, time course): ≤ 3 h
- cereblon substrates (Ikaros, Aiolos, ZFP91) protein (Ikaros, Aiolos and ZFP91; MC/CAR and RPMI 8226 cells, 1 μM POM, 3 days): degraded
- Ikaros, Aiolos and ZFP91 expression level (Ikaros, Aiolos and ZFP91; sensitive cell lines H929, MM1.S, DF15 and U266, 1 μM POM, 72 hours): downregulated
- degradation of the substrates by POM under cereblon knockdown (Ikaros, Aiolos and ZFP91; shCRBN vs shLuc H929 cells, 1 μM POM, 3 days): rescued
